In brackets after ≈: the same amount, converted by molar mass. Read-outs that look alike come from different tables or passages of the source.
Experiments:
[1] = Solubility test (Test Example 4); type: physicochemical; settings: 4 mg in 2 mL; for Concentration (solubility): 37° C., 30 minutes; for solubility at 30 min: 37 °C, thermodynamic from solid, read-out: Concentration (solubility)
Procedure: The Form I crystal (4 mg), the Form II crystal (4 mg) and Compound II (4 mg) were respectively dissolved in 2 mL of water, Japanese Pharmacopoeia Elution Test Solution 1 (JP1), Japanese Pharmacopoeia Elution Test Solution 2 (JP2), Fasted State Simulated Intestinal Fluid (FaSSIF) and Fed State Simulated Intestinal Fluid (FeSSIF). After stirring vigorously for 30 seconds every 5 minutes in a constant temperature water bath at 37° C., a portion of the supernatant was sampled 30 minutes later and filtered with a syringe filter. The filtrate was suitably diluted for use as the sample solution.
The sample solution was measured using HPLC under the following conditions.
HPLC system: Waters Alliance
Column: Waters, XBridge C18 3.5 μm
Column temperature: 40° C.
Solvent A: 5 mM aqueous ammonium hydrogencarbonate solution
The gradient program is as indicated below.

[2] = Hygroscopicity test (Test Example 3); type: physicochemical; settings: 25° C., 10 to 90% RH
Procedure: The sample was weighed in a glass sample cup, and weight was measured under the conditions indicated below.
Measuring instrument: SGA-100 (VTI Corp.)
Measuring temperature: 25° C.
Minimum exposure time: 15 min
Maximum exposure time: 120 min
Step transition condition: within 0.03 wt %
The appearance of the sample was observed following completion of measurement.

[3] = system: spontaneously diabetic rats (ZDF-Lepr^fa/CrlCrlj); test: Blood glucose lowering activity test (Test Example 6); type: in vivo, rat; settings: for Area under blood glucose curve: 0 to 6 hours after oral administration, fasting, Form I crystal 10 mg/kg, Compound II 8.3 mg/kg (equivalent as free form), average of five
Procedure: Male, 9-week-old, spontaneously diabetic rats (ZDF-Lepr^fa/CrlCrlj) were used.
A crystal of the compound of the present invention in the form of the Form I crystal at 10 mg/kg or the free form thereof in the form of Compound II at 8.3 mg/kg (calculated based on the free form, corresponding to the equivalent of 10 mg/kg of the Form I crystal) was respectively suspended in a 20% aqueous HP-β-cyclodextrin solution (hereinafter referred to as “vehicle”) and orally administered under fasting conditions.
Blood glucose levels were measured in accordance with ordinary methods before administration of the compounds (at 0 hour) and at 0.5, 1, 2, 4 and 6 hours after administration. Namely, the tips of the rat tails (about 1 mm) were severed and blood collected with hematocrit tubes subjected to anticoagulation treatment with heparin were centrifuged followed by measuring the resulting plasma with the Glucoroder F (A&T Corporation). The areas under blood glucose curves from 0 to 6 hours after administration were calculated using the resulting blood glucose values.
The results of a blood glucose lowering activity test on each group administered with the Form I crystal, Compound II or vehicle only were as shown in Table 8.
Furthermore, the values shown in Table 8 are all the average values of test result values obtained using five spontaneously diabetic rats (ZDF-Lepr^fa/CrlCrlj).

[4] = Evaluation of in vivo absorption
[5] = Fasted State Simulated Intestinal Fluid (FaSSIF)
[6] = Fed State Simulated Intestinal Fluid (FeSSIF)
[7] = Japanese Pharmacopoeia Elution Test Solution 1 (JP1)
[8] = Japanese Pharmacopoeia Elution Test Solution 2 (JP2)

Row | Concentration (solubility) [1, 5] | Concentration (solubility) [1, 6] | Concentration (solubility) [1, 7] | Concentration (solubility) [1, 8] | Concentration (solubility) ([1]; Water) | Hygroscopicity (moisture sorption-desorption behavior) [2] | solubility at 30 min ([1]; Fasted State Simulated Intestinal Fluid (FaSSIF), fassif, Fasted State Simulated Intestinal Fluid (FaSSIF)) | solubility at 30 min ([1]; Japanese Pharmacopoeia Elution Test Solution 1 (JP1), pH 1.2, simulated gastric fluid, Japanese Pharmacopoeia Elution Test Solution 1 (JP1)) | SMILES | Area under blood glucose curve [3] | Blood glucose lowering activity compared with Compound II ([3]; oral, 10 mg/kg Form I crystal vs 8.3 mg/kg Compound II) | Blood concentrations in comparison with Compound II [4]
1 | 20.4 µg/mL | 1145 µg/mL | >1500 µg/mL | 11.8 µg/mL | >1500 µg/mL | did not demonstrate hygroscopicity |  |  | C[C@H]1CN=C(c2ccc(-c3cc(Oc4cnc(S(C)(=O)=O)cn4)cc(O[C@@H](C)CO)c3)[nH]2)O1 [Form I crystal, (2S)-2-(3-{5-[(5S)-5-Methyl-4,5-dihydro-1,3-oxazol-2-yl]-1H-pyrrol-2-yl}-5-{[5-(methylsulfonyl)pyrazin-2-yl]oxy}phenoxy)propan-1-ol monomethanesulfonate] | 529.0 ± 24.5 mg/dl × hr | superior to that of the free form | high blood concentrations in comparison with Compound II
2 |  | 222 µg/mL |  | 5.87 µg/mL | 5.59 µg/mL |  | 12 µg/mL (≈ 25.4 µM) | > 1500 µg/mL | C[C@H]1CN=C(c2ccc(-c3cc(Oc4cnc(S(C)(=O)=O)cn4)cc(O[C@@H](C)CO)c3)[nH]2)O1 [Compound II, (2S)-2-(3-{5-[(5S)-5-Methyl-4,5-dihydro-1,3-oxazol-2-yl]-1H-pyrrol-2-yl}-5-{[5-(methylsulfonyl)pyrazin-2-yl]oxy}phenoxy)propan-1-ol, reference compound] | 661.8 ± 26.9 mg/dl × hr |  | 
3 | 20.5 µg/mL | 1381 µg/mL | >1500 µg/mL | 14.1 µg/mL | >1500 µg/mL | did not demonstrate hygroscopicity |  |  | C[C@H]1CN=C(c2ccc(-c3cc(Oc4cnc(S(C)(=O)=O)cn4)cc(O[C@@H](C)CO)c3)[nH]2)O1 [Form II crystal, (2S)-2-(3-{5-[(5S)-5-Methyl-4,5-dihydro-1,3-oxazol-2-yl]-1H-pyrrol-2-yl}-5-{[5-(methylsulfonyl)pyrazin-2-yl]oxy}phenoxy)propan-1-ol monomethanesulfonate] |  |  | high blood concentrations in comparison with Compound II
